Experimental data reported in PubChem BioAssay (NCI).
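Method: 48-hour compound exposure of cells in 96-well plates, five concentrations, linear interpolation of endpoints. Here, GI50 denotes the concentration required for 50% inhibition of growth. TGI denotes the concentration required for complete inhibition of growth.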

Tests used:
Assay in all cases: NCI tumour cell line growth inhibition, 48 h
M14 melanoma = test system: M14 melanoma
NCI-H23 lung = test system: NCI-H23 lung
SK-MEL-28 melanoma = test system: SK-MEL-28 melanoma
SK-MEL-5 melanoma = test system: SK-MEL-5 melanoma
T-47D breast = test system: T-47D breast
UO-31 renal = test system: UO-31 renal
HOP-92 NSCLC = test system: HOP-92 NSCLC
NCI-H522 lung = test system: NCI-H522 lung
HCT-15 colon = test system: HCT-15 colon
KM12 colon = test system: KM12 colon
786-0 renal = test system: 786-0 renal
UACC-257 melanoma = test system: UACC-257 melanoma
BT-549 breast = test system: BT-549 breast
HL-60(TB) leukemia = test system: HL-60(TB) leukemia
A498 renal = test system: A498 renal
MDA-MB-231 breast = test system: MDA-MB-231 breast
SK-OV-3 ovarian = test system: SK-OV-3 ovarian
NCI-H460 lung = test system: NCI-H460 lung
K-562 leukemia = test system: K-562 leukemia
RPMI-8226 leukemia = test system: RPMI-8226 leukemia
COLO 205 colon = test system: COLO 205 colon
OVCAR-4 ovarian = test system: OVCAR-4 ovarian
HS 578T breast = test system: HS 578T breast
DU-145 prostate = test system: DU-145 prostate
TK-10 renal = test system: TK-10 renal
OVCAR-5 ovarian = test system: OVCAR-5 ovarian
NCI/ADR-RES ovarian = test system: NCI/ADR-RES ovarian
SW-620 colon = test system: SW-620 colon
ACHN renal = test system: ACHN renal
MDA-MB-435 = test system: MDA-MB-435
CCRF-CEM leukemia = test system: CCRF-CEM leukemia
NCI-H226 lung = test system: NCI-H226 lung
RXF 393 renal = test system: RXF 393 renal
HT29 colon = test system: HT29 colon
HCT-116 colon = test system: HCT-116 colon
PC-3 prostate = test system: PC-3 prostate
HCC-2998 colon = test system: HCC-2998 colon
CAKI-1 renal = test system: CAKI-1 renal
SNB-19 CNS = test system: SNB-19 CNS
SF-268 CNS = test system: SF-268 CNS
OVCAR-3 ovarian = test system: OVCAR-3 ovarian
U251 CNS = test system: U251 CNS
SN12C renal = test system: SN12C renal
MCF7 breast = test system: MCF7 breast
SF-539 CNS = test system: SF-539 CNS
UACC-62 melanoma = test system: UACC-62 melanoma
LOX IMVI melanoma = test system: LOX IMVI melanoma
A549 NSCLC = test system: A549 NSCLC
EKVX NSCLC = test system: EKVX NSCLC
OVCAR-8 ovarian = test system: OVCAR-8 ovarian
SK-MEL-2 melanoma = test system: SK-MEL-2 melanoma
MOLT-4 leukemia = test system: MOLT-4 leukemia
IGROV1 ovarian = test system: IGROV1 ovarian
MALME-3M melanoma = test system: MALME-3M melanoma
HOP-62 NSCLC = test system: HOP-62 NSCLC
SNB-75 CNS = test system: SNB-75 CNS
SF-295 CNS = test system: SF-295 CNS

## Cc1cc(Cl)ccc1Nc1nc(C(F)(F)F)ccc1C(=O)N/N=C/c1ccc(Cl)cc1
M14 melanoma
  GI50: 2.34 µM
  TGI: 7.63 µM
NCI-H23 lung
  GI50: 1.85 µM
  TGI: 6.48 µM
SK-MEL-28 melanoma
  GI50: 2.18 µM
  TGI: 12.7 µM
SK-MEL-5 melanoma
  GI50: 1.52 µM
  TGI: 3.02 µM
T-47D breast
  GI50: 2.17 µM
  TGI: 9.26 µM
UO-31 renal
  GI50: 1.5 µM
  TGI: 6.04 µM
HOP-92 NSCLC
  GI50: 1.94 µM
  TGI: 6.85 µM
NCI-H522 lung
  GI50: 2.23 µM
  TGI: 7.96 µM
HCT-15 colon
  GI50: 0.895 µM
  TGI: 13.1 µM
KM12 colon
  GI50: 2.08 µM
  TGI: 7.24 µM
786-0 renal
  GI50: 2.04 µM
  TGI: 5.74 µM
UACC-257 melanoma
  GI50: 3.67 µM
  TGI: 16.3 µM
BT-549 breast
  GI50: 1.34 µM
  TGI: 4.71 µM
HL-60(TB) leukemia
  GI50: 2.1 µM
  TGI: 4.63 µM
A498 renal
  GI50: 1.91 µM
  TGI: 6.13 µM
MDA-MB-231 breast
  GI50: 1.09 µM
  TGI: 4.22 µM
SK-OV-3 ovarian
  GI50: 1.69 µM
  TGI: 5.57 µM
NCI-H460 lung
  GI50: 2.37 µM
  TGI: 9.08 µM
K-562 leukemia
  GI50: 1.83 µM
  TGI: 8.22 µM
RPMI-8226 leukemia
  GI50: 2.01 µM
  TGI: 6.3 µM
COLO 205 colon
  GI50: 1.63 µM
  TGI: 3.37 µM
OVCAR-4 ovarian
  GI50: 1.46 µM
  TGI: 21.2 µM
HS 578T breast
  GI50: 2.53 µM
  TGI: 9.62 µM
DU-145 prostate
  GI50: 2.56 µM
  TGI: 13.1 µM
TK-10 renal
  GI50: 1.66 µM
  TGI: 7.01 µM
OVCAR-5 ovarian
  GI50: 2.07 µM
  TGI: 6.64 µM
NCI/ADR-RES ovarian
  GI50: 2.16 µM
  TGI: 6.38 µM
SW-620 colon
  GI50: 2.15 µM
  TGI: 11 µM
ACHN renal
  GI50: 2.48 µM
  TGI: 8.71 µM
MDA-MB-435
  GI50: 1.42 µM
  TGI: 3.89 µM
CCRF-CEM leukemia
  GI50: 0.384 µM
  TGI: 3.39 µM
NCI-H226 lung
  GI50: 1.21 µM
  TGI: 3.82 µM
RXF 393 renal
  GI50: 3.08 µM
  TGI: 22.2 µM
HT29 colon
  GI50: 3.24 µM
  TGI: 10.4 µM
HCT-116 colon
  GI50: 2.46 µM
  TGI: 9.87 µM
PC-3 prostate
  GI50: 2.13 µM
  TGI: 9.31 µM
HCC-2998 colon
  GI50: 1.45 µM
  TGI: 4.7 µM
CAKI-1 renal
  GI50: 1.25 µM
  TGI: 3.85 µM
SNB-19 CNS
  GI50: 2.6 µM
  TGI: 12.4 µM
SF-268 CNS
  GI50: 1.35 µM
  TGI: 10.1 µM
OVCAR-3 ovarian
  GI50: 1.32 µM
  TGI: 5.28 µM
U251 CNS
  GI50: 2.07 µM
SN12C renal
  GI50: 2.22 µM
  TGI: 9 µM
MCF7 breast
  GI50: 1.55 µM
  TGI: 4.7 µM
SF-539 CNS
  GI50: 1.7 µM
  TGI: 3.96 µM
UACC-62 melanoma
  GI50: 2.14 µM
  TGI: 5.33 µM
LOX IMVI melanoma
  GI50: 1.38 µM
  TGI: 11.7 µM
A549 NSCLC
  GI50: 3.02 µM
  TGI: 27.9 µM
EKVX NSCLC
  GI50: 1.25 µM
  TGI: 4.45 µM
OVCAR-8 ovarian
  GI50: 3.16 µM
  TGI: > 100 µM
SK-MEL-2 melanoma
  GI50: 2.18 µM
  TGI: 9.2 µM
MOLT-4 leukemia
  GI50: 0.75 µM
  TGI: 4.35 µM
IGROV1 ovarian
  GI50: 3.31 µM
  TGI: 13.6 µM
MALME-3M melanoma
  GI50: 2.02 µM
  TGI: 5.51 µM
HOP-62 NSCLC
  GI50: 2.33 µM
  TGI: 9.22 µM
SNB-75 CNS
  GI50: 1.51 µM
  TGI: 6.48 µM

## O=C(NCCNCCCNC(=O)c1cc(-c2ccccc2)nc2ccccc12)c1cccc(O)c1O
M14 melanoma
  TGI: 10.4 µM
NCI-H23 lung
  TGI: 37.8 µM
SK-MEL-28 melanoma
  TGI: 18.5 µM
SK-MEL-5 melanoma
  TGI: 4.09 µM
T-47D breast
  TGI: 10.8 µM
UO-31 renal
  TGI: 14.9 µM
HOP-92 NSCLC
  TGI: 62.9 µM
NCI-H522 lung
  TGI: 29.7 µM
HCT-15 colon
  TGI: 26.8 µM
KM12 colon
  TGI: 76.6 µM
786-0 renal
  TGI: > 100 µM
UACC-257 melanoma
  TGI: 18.5 µM
BT-549 breast
  TGI: 11.9 µM
HL-60(TB) leukemia
  TGI: > 100 µM
A498 renal
  TGI: 55.9 µM
MDA-MB-231 breast
  TGI: > 100 µM
SK-OV-3 ovarian
  TGI: > 100 µM
NCI-H460 lung
  TGI: 41.6 µM
K-562 leukemia
  TGI: 11.1 µM
RPMI-8226 leukemia
  TGI: 15.3 µM
COLO 205 colon
  TGI: 22.4 µM
HS 578T breast
  TGI: > 100 µM
DU-145 prostate
  TGI: > 100 µM
TK-10 renal
  TGI: 64.4 µM
OVCAR-5 ovarian
  TGI: 13.9 µM
NCI/ADR-RES ovarian
  TGI: > 100 µM
SW-620 colon
  TGI: > 100 µM
ACHN renal
  TGI: 20 µM
MDA-MB-435
  TGI: 13.1 µM
CCRF-CEM leukemia
  TGI: > 100 µM
NCI-H226 lung
  TGI: 36.3 µM
RXF 393 renal
  TGI: 47.7 µM
HT29 colon
  TGI: 22.2 µM
HCT-116 colon
  TGI: 28.5 µM
PC-3 prostate
  TGI: > 100 µM
HCC-2998 colon
  TGI: 17.4 µM
CAKI-1 renal
  TGI: > 100 µM
SNB-19 CNS
  TGI: 11.8 µM
SF-268 CNS
  TGI: 16.4 µM
OVCAR-3 ovarian
  TGI: 26.3 µM
U251 CNS
  TGI: 17.6 µM
SN12C renal
  TGI: 52.6 µM
MCF7 breast
  TGI: 15.9 µM
SF-539 CNS
  TGI: 11.6 µM
UACC-62 melanoma
  TGI: 12.1 µM
LOX IMVI melanoma
  TGI: > 100 µM
A549 NSCLC
  TGI: > 100 µM
EKVX NSCLC
  TGI: > 100 µM
SK-MEL-2 melanoma
  TGI: 15.1 µM
MOLT-4 leukemia
  TGI: > 100 µM
IGROV1 ovarian
  TGI: 28.9 µM
MALME-3M melanoma
  TGI: 20.2 µM
HOP-62 NSCLC
  TGI: 15.9 µM
SNB-75 CNS
  TGI: 60.9 µM
SF-295 CNS
  TGI: 28.7 µM
